A short description of series [1]: Solvation interaction parameters by inverse gas-liquid chromatography (Abraham solvation model). It is filed as physicochemical. The protocol:
The preparation of the capillary columns for inverse gas-liquid chromatographic analysis was performed using a previously described procedure.^31 All capillary columns had efficiencies between 2100 to 2500 plates/meter. Characterization of the capillary columns and probe molecule descriptions are listed in supplemental information. Multiple linear regression analysis (MLRA) and statistical calculations were performed using the program Analyse-it (Microsoft, USA).
We have previously reported that the Abraham solvation model, a linear free energy approach that utilizes inverse gas-liquid chromatography to describe the solvation properties of a liquid, can be used to characterize room temperature ionic liquids.^31 Described by equation 1, the model provides the so-called “interaction parameters” (r, s, a, b, l) by using multiple linear regression analysis to fit the retention factor (k, determined chromatographically) to the solute descriptors (R2, π2^H, α2^H, β2^H, log L^16) for a wide variety of probe solute molecules. […] The solvation properties of four dicationic ionic liquids (see Table 4) were evaluated and the interaction parameters compared to those obtained for their traditional monocationic analogues 1-butyl-3-methylimidazolium and 1-butyl-1-methylpyrrolidinium ionic liquids.
Previously we characterized a large number of room temperature ionic liquids in terms of multiple solvation interactions using the solvation parameter model, shown in equation 3.^44 log k=c+rR2+sπ2^H+aα2^H+bβ2^H+l log L^16 [3] This approach utilizes inverse gas-liquid chromatography and allows the use of a large number of probe molecules to deconvolute solute retention in terms of the type and magnitude of individual solvation interactions. The solute descriptors (R2, π2^H, α2^H, β2^H, log L^16) from Equation 3 are obtained from the literature for many probe molecules containing a variety of functional groups.^45 The retention factor is determined chromatographically. The solute descriptors and retention factors are subjected to multiple linear regression analysis to obtain the interaction parameter coefficients (r, s, a, b, l), which ultimately characterize the stationary phase: r is the ability of the diionic liquid containing-stationary phase to interact with π and n electrons of the solute, s is a measure of the dipolarity/polarizability of the diionic liquid containing-stationary phase, a defines the diionic liquid containing-stationary phase hydrogen bond basicity, b is a measure of the hydrogen bond acidity, and/refers to the ability of the diionic liquid containing-stationary phase to separate adjacent members of a homologous series.^46
Test solutes used to determine interaction parameters and solvation thermodynamics were dissolved in dichloromethane. A Hewlett-Packard model 5890 gas chromatograph and a Hewlett-Packard 6890 series integrator were used for all separations. Split injection and flame ionization detection were utilized with injection and detection temperatures of 250° C. Helium was used as the carrier gas with a column inlet pressure of 3.1 psi and flow rate of 1.0 mL/min. Methane was used to determine the dead volume of the column. Multiple linear regression analysis and statistical calculations were performed using the program Analyze-it (Microsoft).

For `Cc1n(C)cc[n+]1CCC[n+]1ccn(C)c1C.[Br-].[Br-]` [C3(m2im)2-Br, 1,3-di(2,3-dimethylimidaolium)propane di-bromide], the “Miscibility with Heptane” value is given as “Immiscible” and the “Miscibility with Water” value was “Miscible”.
For `Cc1n(C)cc[n+]1CCC[n+]1ccn(C)c1C.O=S(=O)([N-]S(=O)(=O)C(F)(F)F)C(F)(F)F.O=S(=O)([N-]S(=O)(=O)C(F)(F)F)C(F)(F)F` [C3(m2im)2-NTf2, 1,3-di(2,3-dimethylimidazolium)propane di-bis[(trifluoromethyl)sulfonyl]imidate], in that order: “Immiscible” and “Immiscible”.
On the same counts, the results for `Cc1n(C)cc[n+]1CCC[n+]1ccn(C)c1C.F[P-](F)(F)(F)(F)F.F[P-](F)(F)(F)(F)F` [C3(m2im)2-PF6, 1,3-di(2,3-dimethylimidazolium)propane di-hexafluorophosphate] are “Immiscible” and “Immiscible”.
On to `C[N+]1(CCC[N+]2(C)CCCC2)CCCC1.O=S(=O)([N-]S(=O)(=O)C(F)(F)F)C(F)(F)F.O=S(=O)([N-]S(=O)(=O)C(F)(F)F)C(F)(F)F` [C3(mpy)2-NTf2, 1,3-di(methylpyrrolidinium)propane di-bis[(trifluoromethyl)sulfonyl]imidate], for which the “Miscibility with Heptane” value was “Immiscible” and the “Miscibility with Water” value is listed as “Immiscible”.
In the case of `C[n+]1ccn(CCCCn2cc[n+](C)c2)c1.O=S(=O)([N-]S(=O)(=O)C(F)(F)F)C(F)(F)F.O=S(=O)([N-]S(=O)(=O)C(F)(F)F)C(F)(F)F` [C4(mim)2-NTf2], in series [1] (40° C.), the “a (hydrogen bond basicity)” value is recorded as 2.11; the “b (hydrogen bond acidity)” value was found to be 0.50; the “c (interaction parameter table, constant)” value is recorded as −2.94; the “l (dispersion forces)” value stood at 0.56. In addition, in series [1] (40° C.), the “r (interaction via nonbonding and π-electrons)” value was found to be 0.25; the “s (dipolarity/polarizability)” value turned out to be 2.01. In series [1] (70° C.), the “a (hydrogen bond basicity)” value was 1.77; the “b (hydrogen bond acidity)” value came out at 0.45; the “c (interaction parameter table, constant)” value is recorded as −2.91; the “l (dispersion forces)” value was found to be 0.44. In series [1] (70° C.), the “r (interaction via nonbonding and π-electrons)” value is on record as 0.22; the “s (dipolarity/polarizability)” value is 1.78. Also, in series [1] (100° C.), the “a (hydrogen bond basicity)” value is given as 1.57; the “b (hydrogen bond acidity)” value is recorded as 0.33; the “c (interaction parameter table, constant)” value is −3.06; the “l (dispersion forces)” value came out at 0.37. In addition, in series [1] (100° C.), the “r (interaction via nonbonding and π-electrons)” value is listed as 0.20; the “s (dipolarity/polarizability)” value amounted to 1.69.
Take `C[n+]1ccn(CCCCCCn2cc[n+](C)c2)c1.F[B-](F)(F)F.F[B-](F)(F)F` [C6(mim)2-BF4, 1,6-di(3-methylimidazolium)hexane di-tetrafluoroborate]: the “Miscibility with Heptane” value is on record as “Immiscible” and the “Miscibility with Water” value is listed as “Miscible”.
On the same counts, the results for `C[n+]1ccn(CCCCCCn2cc[n+](C)c2)c1.F[P-](F)(F)(F)(F)F.F[P-](F)(F)(F)(F)F` [C6(mim)2-PF6, 1,6-di(3-methylimidazolium)hexane di-hexafluorophosphate] are “Immiscible” and “Immiscible”.
As to `CCCC[N+]1(CCCCCCCCC[N+]2(CCCC)CCCC2)CCCC1.F[P-](F)(F)(F)(F)F.F[P-](F)(F)(F)(F)F` [C9(bpy)2-PF6, 1,9-di(butylpyrrolidinium)nonane di-hexafluorophosphate], the “Miscibility with Heptane” value is listed as “Immiscible” and the “Miscibility with Water” value was “Immiscible”.
Consider `Cc1n(C)cc[n+]1CCCCCCCCC[n+]1ccn(C)c1C.[Br-].[Br-]` [C9(m2im)2-Br, 1,9-di(2,3-dimethylimidazolium)nonane di-bromide], for which the “Miscibility with Heptane” value is on record as “Immiscible” and the “Miscibility with Water” value is “Miscible”.

The values above are taken from patent US8956445B2, “High stability diionic liquid salts” (Sigma-Aldrich Co., priority 2004, dated 2015).
